{
  "source": "patent US9260504B2",
  "about": "“N- and C-terminal substituted antagonistic analogs of GH-RH” (University of Miami, priority 2008, dated 2016)",
  "format_in_all_cases": "in vivo",
  "key": {"[1]": {"system": "PC-3 human hormone-independent prostate cancer", "experiment": "PC-3 human prostate cancer xenografts in nude mice, Experiment 1", "settings": "10 μg/day s.c., daily for 35 days; means±S.E.", "procedure": "(§1) Male nude mice were implanted s.c. with 3 mm^3 pieces of PC-3 human hormone-independent prostate cancer tissue on both flanks. When tumors reached a volume of approx. 50 mm^3, the mice were divided into 4 experimental groups with 8 to 10 animals in each group and received single daily injections for 35 days as follows: 1. Control (vehicle solution); 2. JMR-132 (10 μg/day s.c.); 3. Peptide 1109 (10 μg/day s.c.); 4. Peptide 11111 (10 μg/day s.c.); Tumor volumes were measured once a week. The experiment was ended on day 35 by sacrificing the mice under Isoflurane anesthesia. Resulting tumors were cleaned, weighed, and snap-frozen until further analyses. Statistical analyses of the measurement results were done by two-tailed t-test, p<0.05 being considered significant. Data are presented as the means±S.E."}, "[2]": {"system": "PC-3 human hormone-independent prostate cancer", "experiment": "PC-3 human prostate cancer xenografts in nude mice, Experiment 2", "procedure": "as §1\nExperiment 2 was similar to Experiment 1. Experiment 2 was started when PC-3 tumors had grown to approximately 50 mm^3 in volume. At this time, the animals were divided into 5 experimental groups with 8 animals in each group, and received single daily injections for 14 days as follows: 1. Control (vehicle solution); 2. JMR-132 (10 μg/day s.c.); 3. Peptide 1109 (5 μg/day s.c.); 4. Peptide 11109 (5 μg/day s.c.); 5. Peptide 11109 (2 μg/day s.c.). Further details of Experiment 2 are the same as for Experiment 1"}, "[3]": {"system": "H-460 human non-small cell lung cancer", "experiment": "H-460 human non-SCLC xenografts in nude mice, Experiment 1", "settings": "10 μg/day s.c., 28 days; means±S.E.", "procedure": "Male nude mice were implanted s.c. with 3 mm^3 pieces of H-460 human non-SCLC tumor tissue on both flanks. When tumors had grown to a mean volume of approximately 90 mm^3, the mice were randomly assigned into 4 experimental groups with 10 animals in each group and received single daily injections for 28 days as follows: 1. Control (vehicle solution); 2. JMR-132 (10 μg/day s.c.); 3. Peptide 1109 (10 μg/day s.c.); 4. Peptide 11111 (10 μg/day s.c.). Tumor volumes were measured once a week. The experiment was ended on day 28 by sacrificing the mice under Isoflurane anesthesia. Resulting tumors were cleaned, weighed, and snap-frozen until further analyses. Statistical analyses of the measurement results were done by two-tailed t-test, p<0.05 being considered significant. Data are presented as the means±S.E."}, "[4]": {"system": "MDA-MB-231 human estrogen independent breast cancer", "experiment": "MDA-MB-231 human estrogen independent breast cancer xenografts in nude mice", "settings": "5 μg/day s.c., 28 days", "procedure": "Female nude mice were xenografted s.c. with MDA-MB-231 tumor tissue from donor animals. When tumors had grown to a mean volume of approximately 50 mm^3, the mice were randomly assigned into 2 experimental groups with 10 animals in each group and received single daily injections for 28 days as follows: 1. Control (vehicle solution); 2. Peptide 1109 (5 μg/day s.c.). Tumor volumes were measured once a week. The experiment was ended on day 28 by sacrificing the mice under Isoflurane anesthesia. Resulting tumors were cleaned, weighed, and snap-frozen until further analyses. Statistical analyses of the measurement results were done by two-tailed t-test, p<0.05 being considered significant."}, "[5]": {"system": "NCI-N87 human gastric cancer", "experiment": "NCI-N87 human gastric cancer xenografts in nude mice", "settings": "10 μg/day s.c.", "procedure": "NCI-N87 cancers were transplanted s.c. into both flank areas of 30 female nude mice. The mice were randomly assigned into 4 experimental groups with 6 to 9 animals in each group and received single daily injections for 77 days as follows: 1. Control (vehicle solution); 2. JMR-132 (10 μg/day s.c.); 3. Peptide 1109 (10 μg/day s.c.); 4. Peptide 11479 (10 μg/day s.c.). Tumor volumes were measured once a week. The experiment was ended on day 77 by sacrificing the mice under Isoflurane anesthesia. Resulting tumors were cleaned, weighed, and snap-frozen until further analyses. Statistical analyses of the measurement results were done by two-tailed t-test, p<0.05 being considered significant. Data are presented as the means±S.E."}, "[6]": {"system": "SK-Hep-1 human hepatocellular cancer", "experiment": "SK-Hep-1 human hepatocellular cancer xenografts in nude mice", "settings": "for Tumor volume (mm^3) on day 135: means±S.E.; for Tumor weights (mg): tumors removed at autopsy", "procedure": "SK-Hep-1 cancers were transplanted s.c. into both flank areas of 66 female nude mice, and allowed to grow for 47 days before starting the treatment with GH-RH antagonists. The mice were randomly assigned into 4 experimental groups with 8 animals in each group and received single daily injections for 135 days as follows: 1. Control (vehicle solution); 2. JMR-132 (10 μg/day s.c.); 3. Peptide 1109 (5 μg/day s.c.); 4. Peptide 1109 (10 μg/day s.c.). Tumor volumes were measured once a week. The experiment was ended on day 135 by sacrificing the mice under Isoflurane anesthesia. Resulting tumors were cleaned, weighed, and snap-frozen until further analyses. Statistical analyses of the measurement results were done by two-tailed t-test, p<0.05 being considered significant. Data are presented as the means±S.E."}},
  "note": "Marks after values point to notes of the source that are not given here.",
  "data": [
    {"substance": "[PhAc^0-Tyr^1, D-Arg^2, Cpa^6, Ala^8, Har^9, Tyr(Me)^10, His^11, Abu^15, Glu^17, His^20, Nle^27, D-Arg^28, Har^29]hGH-RH(1-29)NH2 [Peptide 1109]", "values": [
      {"measurement": "Tumor growth after 5 weeks (%)", "setting": "[1]", "result": "1502 ± 405", "unit": "%"},
      {"measurement": "Tumor growth after 2 weeks (%)", "setting": "[2]; 5 μg/day s.c., 14 days", "result": 311, "unit": "%"},
      {"measurement": "Inhibition of PC-3 tumor growth compared with reference peptide JMR-132", "setting": "[2]; Peptide 1109 5 μg/day, Peptide 11109 5 and 2 μg/day, JMR-132 10 μg/day, 14 days", "result": "inhibited the growth of PC-3 tumors more potently than reference peptide JMR-132"},
      {"measurement": "Inhibition (%)", "setting": "[2]; tumor growth after 2 weeks, 5 μg/day s.c.", "result": 56.58, "unit": "%"},
      {"measurement": "Tumor growth after 4 weeks (%)", "setting": "[3]", "result": "1042 ± 181", "unit": "%"},
      {"measurement": "Inhibition of the growth of MDA-MB-231 human breast cancers", "setting": "[4]", "result": "about 75%"},
      {"measurement": "Number of regressing tumors", "setting": "[5]; 77 days", "result": 6},
      {"measurement": "Tumor growth after 77 days (%)", "setting": "[5]; 77 days, means±S.E.", "result": "225 ± 59", "unit": "%"},
      {"measurement": "Tumor weights", "setting": "[5]; day 77, means±S.E.", "result": "170 ± 52", "unit": "mg"},
      {"measurement": "Tumor doubling time", "setting": "[5]; calculated without the regressing tumors", "result": "93.6 ± 30.7", "unit": "days"},
      {"measurement": "Tumors with total regression", "setting": "[6]; 5 μg/day s.c., 135 days", "result": 5},
      {"measurement": "Tumor volume (mm^3) on day 135", "setting": "[6]; 5 μg/day s.c., 135 days", "result": "271 ± 98", "unit": "mm^3"},
      {"measurement": "Tumor weights (mg)", "setting": "[6]; 5 μg/day s.c.", "result": "565 ± 115 (6) mg"},
      {"measurement": "Inhibition of SK-Hep-1 hepatic cancer growth compared with reference peptide JMR-132", "setting": "[6]; 5 μg/day vs JMR-132 10 μg/day, 135 days", "result": "more potently inhibited the growth of SK-Hep-1 hepatic cancers than the reference peptide JMR-132"},
      {"measurement": "Tumors with total regression", "setting": "[6]; 10 μg/day s.c., 135 days", "result": 7},
      {"measurement": "Tumor volume (mm^3) on day 135", "setting": "[6]; 10 μg/day s.c., 135 days", "result": "200 ± 123* mm^3"},
      {"measurement": "Tumor weights (mg)", "setting": "[6]; 10 μg/day s.c.", "result": "605 ± 281 (4) mg"}
    ]}
  ]
}
